Experimental findings from a melting point compilation (Tetko et al.; mined from patent text by program, amines drawn as free bases though some values may be those of a salt) are described below.

Where only a bound is given, the exact number is not on record here.

In general, melting point refers to the temperature, or range, at which the solid turns liquid. `CCCCN(CCCC)Cc1nnc(-c2ncn3c2CN(C)C(=O)c2ccccc2-3)o1` returned a melting point of 211 to 213 °C.

Regarding `CNc1cc(C(=O)CS(C)(=O)=O)cc(NC)c1Cl`, the melting point was in the range of 165 to 167 °C.

As for `O=C1CCCc2cc(CCN3CCN(c4nsc5ccccc45)CC3)ccc2N1`, the melting point was in the range of 173 to 174 °C.

In turn, `CC(C)c1ccc(-c2c(Cl)ncnc2Cl)cc1` had a melting point of 69 to 70 °C.

For the molecule `CC(=O)CC(=O)c1ccc2c3c(cccc13)CC2`, the melting point was found to be 59 °C.

Turning to `CCCn1c(=O)c2[nH]c(/C=C/c3cccc(F)c3)nc2n(CCC)c1=O`, the melting point lay within 265 to 266 °C.

For `CCOC(=O)c1cc2cc(NC(C)=O)ccc2[nH]1`, the melting point lay in the range of 202 to 203 °C.

The molecule `CC1OC(Oc2ccc(C(=O)c3ccc(C#N)cc3)cc2)C(O)C(O)C1O` (stereo not drawn) came in with a melting point of 96 °C.

Molecule `Nc1ccc2c(=O)n(-c3ccccc3)c(=O)n(-c3ccccc3)c2n1` returned a melting point of 162 to 163 °C.

In turn, `CCC#COc1ccc(S(=O)(=O)NC(CSCc2ccccc2)C(=O)NO)cc1` (stereo not drawn) showed a melting point of 137 to 138 °C.

As to `Cc1sc(-c2ccccc2)nc1CN(C)[C@H]1CC[C@H](c2ccc3[nH]c(=O)oc3c2)CC1`, the melting point was in the range of 246 to 248 °C.

Molecule `CCn1c(=O)c(C(=O)NN)c(O)c2ccc(C)nc21` registered a melting point of 211 to 213 °C.

`Cc1oc(Cc2ccccc2)c(C(=O)c2cc(C(C)C)c(O)c(C(C)C)c2)c1C` registered a melting point of 138 °C.

Molecule `Cc1noc(NS(=O)(=O)c2ccc(F)cc2)c1Br` displayed a melting point of 142 to 144 °C.

In the case of `CCCc1nc2c(N)nc3ccccc3c2n1CC(C)(C)OCCS(C)(=O)=O`, the melting point lay within 203 to 206 °C.

The molecule `CC(C)(CO)C(O)C(=O)NCc1cccnc1` (stereo not drawn) displayed a melting point of 120 to 122 °C.

As for `Clc1ccc2c(NCC=CCNc3ccnc4cc(Cl)ccc34)ccnc2c1`, the melting point is greater than 250 °C.

Turning to `CC(=O)Nc1ccc(Sc2nc(Nc3cc(C)n[nH]3)cc(-c3ccccc3C)n2)cc1`, the melting point lay within 212 to 214 °C.

`CCOC(=O)COc1ccc(Br)cc1C1C(C(=O)OCC)=C(C)NC(C)=C1C(=O)OCC` displayed a melting point of 153 to 154 °C.

`Cn1nc(-c2c(F)cccc2Cl)nc1-c1ccc(F)c(-c2ccc(OC(F)(F)F)cc2)c1` came in with a melting point of 117 to 119 °C.

`CC(=O)OC1CSC(Oc2ccc(C(=O)NCc3ccccc3)nc2)C(OC(C)=O)C1OC(C)=O` (stereo not drawn) registered a melting point of 177 to 178 °C.

In turn, `CNCc1ccc2c(Br)c(OC)ccc2c1` yielded a melting point of 41 to 45 °C.

As for `COC(=O)C1(c2ccc(OCCNC(=O)C3Cc4ccccc4N3S(=O)(=O)c3ccc(-c4cc(C(F)(F)F)ccc4Cl)cc3)cc2)CC1` (stereo not drawn), the melting point lay within 64 to 72 °C.

In the case of `O=c1cnc(-c2ccccc2)nn1CC(F)(F)F`, the melting point was in the range of 129 to 131 °C.

`CNc1ccccc1C(=O)N1Cc2ccccc2C(=O)N1` displayed a melting point of 199 to 202 °C.

Take `CC(C)(C)NC(=O)N1CCn2c(c(C(N)=O)c(Br)c2C2CC2)C1`: the melting point was in the range of 204 to 208 °C.

The molecule `COC(=O)c1c(Cc2ccc(C(=O)NC(C)(C)CC(=O)N(C)C)cc2)c(=O)c2ccc(Cl)cc2n1-c1ccccc1` returned a melting point of 84.1 to 95.5 °C.

On to `CCOC(=O)c1cc(-c2cc(C)on2)[nH]n1`, for which the melting point lay in the range of 149 to 151 °C.

Molecule `CC#CCOc1ccc(S(=O)(=O)N(C)C(C(=O)NO)C(C)(C)SCCN(CC)CC)cc1` (stereo not drawn) yielded a melting point of 55 to 57 °C.

Turning to `Cc1c(CCCO)c2c(c(C)c1NC(=O)NCCO)C(c1ccc(C(C)C)cc1)CO2` (stereo not drawn), the melting point is 153 to 154 °C.

`OC(CNC1CCc2ccccc2C1)COc1ccc2ccccc2c1` (stereo not drawn) registered a melting point of 102 to 115 °C.

As for `OCc1cc(CO)n(C(c2ccccc2)(c2ccccc2)c2ccccc2)n1`, the melting point lay within 180 to 182 °C.

Turning to `CCOC(=O)CCC(=O)c1ccc(CCNS(=O)(=O)c2cccc(C(F)(F)F)c2)cc1`, the melting point was in the range of 83 to 85 °C.

For `COC(=O)C(Cc1ccccc1)NC(=O)C(N)(CC(=O)O)C(=O)N1CCCCC1` (stereo not drawn), the melting point lay in the range of 225 to 227 °C.

Take `COC(=O)CCc1c[nH]c2ccccc12`: the melting point was 162 to 164 °C.

Molecule `COc1ccc2c(c1C)CCc1ccc(-c3cccnc3)cc1C21N=C(N)N(C)C1=O` (stereo not drawn) yielded a melting point of 235 to 239 °C.

`CON=C(C#N)c1ccccc1COc1ccc(Cl)cc1` displayed a melting point of 69 to 71 °C.

The molecule `CCCCCCC(C)OC(=O)c1ccc(-c2ccc(-c3ccc(C(=O)OC(C)CCCCCC)cc3)cc2)cc1` (stereo not drawn) displayed a melting point of 81 to 82 °C.

The molecule `Cc1ccc(C(=O)c2ccn(C)c2C)cc1` gave a melting point of 80 to 82 °C.

In the case of `O=C(O)c1cc(-c2ccc(OCc3ccccc3)cc2)c(=O)n2ccc3ccsc3c12`, the melting point was in the range of 197 to 199 °C.

Take `NS(=O)(=O)c1cc(C(=O)O)cc([N+](=O)[O-])c1NC1CCCCC1`: the melting point was 185 to 186 °C.

`CCc1cc2c(cc1O)C(C)(C)CCC2(C)C` came in with a melting point of 88 to 89 °C.

In turn, `COc1cc(C(C)=O)ccc1OC/C=C/CBr` registered a melting point of 71 to 72 °C.

Take `C=CCCC(=O)N1CCc2nnc(N(C)N)cc2C1`: the melting point fell in the range of 128 to 130 °C.

As for `O=C(NCCCc1ccccc1)Nc1ccccn1`, the melting point lay in the range of 127 to 128 °C.

`CC(=O)NC(=S)c1nc2cc(Cl)c(Cl)cc2n1S(=O)(=O)N(C)C` had a melting point of 172 to 173 °C.

`N#Cc1ccc(Cn2cncn2)c(-c2ccc(O)c(Cl)c2)c1` registered a melting point of 243 to 245 °C.

Molecule `CCOC(=O)c1ccc(C(=O)O)s1` displayed a melting point greater than 300 °C.

`COc1ccc([C@@H]2OC(=O)N[C@@H]2Cc2ccc(C(F)(F)F)cc2)cc1` (racemic) had a melting point of 164 to 165 °C.

`C[C@@H](C(N)=O)c1ccc(NS(C)(=O)=O)c(F)c1` gave a melting point of 40 to 42 °C.

Molecule `CC(C)(C)CC(NC(=O)c1ccccc1)Nc1c(Nc2cccnc2Cl)c(=O)c1=O` (stereo not drawn) yielded a melting point of 259 to 260 °C.

For the molecule `CN(c1cccc(C(F)(F)F)c1)c1nc2c(-c3cccc(C(=O)O)c3)cccc2n1C`, the melting point lay within 211 to 212 °C.

`Cc1ccc(S(=O)(=O)N2Cc3sccc3-n3cccc3C2)cc1` came in with a melting point of 165 °C.

Molecule `Cc1nc2nc(SCc3ccccc3)nn2c(O)c1Cl` yielded a melting point of 258 to 260 °C.

As for `Cc1cn([C@H]2CC[C@H](CC(=O)O)C[C@@H]2NC(=O)OC(C)(C)C)c(=O)n(COCc2ccccc2)c1=O`, the melting point is 89 to 91 °C.

`CCOC(=O)c1cc(-c2ccc(N)cc2)n(-c2ccc(F)cc2)n1` displayed a melting point of 158 to 160 °C.

Consider `CC(C)c1cc(CCC(=O)O)n(Cc2ccc(C(F)(F)F)cc2Cl)n1`, for which the melting point lay within 117 to 119 °C.

In turn, `Cc1cc(C)c(C(C#N)c2nc(C)nc(Cl)c2C)c(C)c1` (stereo not drawn) yielded a melting point of 100 to 102 °C.

As for `CCCCCCCCOc1cc2cc(C(=O)OC)c(C(=O)OC)c(-c3ccncc3)c2cc1OC`, the melting point was in the range of 124 to 126 °C.

In turn, `CC(C)(C(=O)O)c1ccc(OCCNC(=O)C2Cc3ccccc3N2S(=O)(=O)c2ccc(-c3cc(C(F)(F)F)ccc3Cl)cc2)cc1` (stereo not drawn) yielded a melting point of 92 to 100 °C.

The molecule `CC(=O)OC1CSC(Sc2ccccc2C#N)C(OC(C)=O)C1OC(C)=O` (stereo not drawn) displayed a melting point of 160 °C.

`O=C(O)CCCCSc1nc(-c2ccccc2)c(-c2ccccc2)[nH]1` gave a melting point of 190 to 195 °C.

For the molecule `COc1cc2ccn3c(=O)c(C(=O)O)cnc3c2cc1OC`, the melting point was in the range of 298 to 301 °C.

With `Cc1cc(=O)c2[nH]c3ccccc3c2s1`, the melting point fell in the range of 295 to 296 °C.

Regarding `N#Cc1c(Cl)c2cc(F)cnc2[nH]c1=O`, the melting point worked out at 272 °C.

Take `O=C(O)CN1CCC(=C2c3ccccc3COc3ccccc32)CC1`: the melting point lay in the range of 132 to 135 °C.

`CCn1c(=O)[nH]c(=O)c2nc(-c3ccc(/C=C/C(=O)O)cc3)[nH]c21` yielded a melting point greater than 300 °C.

Molecule `CNc1cn(-c2cncc(F)c2)nc1C1CC1` displayed a melting point of 118 to 120 °C.

In turn, `OCC(O)COc1ccc(-c2nc(-c3cccs3)c[nH]2)cc1` (stereo not drawn) returned a melting point of 197 to 200 °C.

Consider `CC(C)(C)c1ccc(C[C@@H](NC(=O)c2ccc(F)c3ccccc23)[C@@H](O)c2ccc(F)cc2)cc1` (racemic), for which the melting point is 149 to 150 °C.

Consider `CCC(C)(O)c1cc(NC(=O)N2CCN(c3cc(OC)cc(OC)c3)CC2)c(OC)nc1C` (stereo not drawn), for which the melting point is 127 to 129 °C.

`CCCc1c(OCCCSc2ccc(CC(=O)O)c(Cl)c2Cl)ccc(C(C)=O)c1O` yielded a melting point of 119 to 122 °C.

With `COC1CC2(C)C(CCC3C4CC(C)C(C(C)=O)C4(C)CC(=O)C32)CC1O` (stereo not drawn), the melting point was in the range of 180 to 182 °C.

On to `O=C(OSc1ccccn1)c1ccc(Cc2ccc(F)cc2)o1`, for which the melting point is 88 to 89 °C.

With `CCC(O)(CC)[C@@H]1C[C@@H]([C@H](CC2CCCCC2)NC(=O)OC(C)(C)C)OC1=O`, the melting point fell in the range of 118 to 120 °C.

`c1ccc(-c2cnc3c(c2)nnc2cncn23)cc1` registered a melting point of 225 to 227 °C.

Turning to `CN1CCN(C(=O)/C=C/c2occc(=O)c2OCC(=O)OC(C)(C)C)CC1`, the melting point lay in the range of 124 to 125 °C.

`COC(=O)[C@@H]1CCC(c2cccc(O)c2)N1C(=O)CNC(=O)OCc1ccccc1` (stereo partly drawn) returned a melting point of 173 °C.

The molecule `CCOC(=O)NC(=O)C(Cl)C(C)=O` (stereo not drawn) showed a melting point of 69.5 to 70 °C.

Molecule `O=c1[nH]c(=Cc2ccc(OCc3ccccc3)cn2)c(=O)[nH]c1=Cc1ccc2c(c1)OCO2` came in with a melting point of 255 to 256 °C.

In turn, `Fc1ccc2c(c1)Oc1ccccc1S2` registered a melting point of 77.5 to 79 °C.

In the case of `c1ccc(N(CCCNC2=NC3CCC2CC3)c2ccccc2)cc1`, the melting point is 148 to 150 °C.

On to `CS(=O)(=O)NCc1ccc2[nH]cc(CCN3C(=O)c4ccccc4C3=O)c2c1`, for which the melting point lay in the range of 162 to 165 °C.

The molecule `Oc1ccccc1NC(=S)NCc1ccncc1` returned a melting point of 180 °C.

Turning to `CC(C)COc1ccccc1-c1ncc(-c2nnn[nH]2)c(=O)[nH]1`, the melting point is 230 to 231 °C.

Take `CC(C(=O)N(C)C)n1cc(Cl)c(-c2ccccc2Cl)n1` (stereo not drawn): the melting point is 108 to 111 °C.

Take `CCCCCCCCCCCCCCCCCCN1C(=O)c2ccccc2C1=O`: the melting point was 78 to 79 °C.

Molecule `Nc1nc2cccnc2c2c1nc(CO)n2Cc1cc(-c2ccc(F)cc2)no1` returned a melting point of 247 to 248 °C.
